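The compound was tested at five concentrations on cells cultured in 96-well plates, with a 48-hour exposure period. GI50 marks 50% less growth.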 Active and inactive are the calls of the source. Cut-off read from the data, not from the text of the source: active = GI50 up to about 1.1 µM and inactive = higher.
Tests used:
Test in all cases: NCI anticancer screen, dose series, 48 h
[1] = test system: KM12
[2] = test system: SF-295
[3] = test system: NCI-H226
[4] = test system: SK-MEL-5
[5] = test system: SW-620
[6] = test system: SK-MEL-28
[7] = test system: SN12C
[8] = test system: SF-539
[9] = test system: ACHN
[10] = test system: CAKI-1
[11] = test system: SK-MEL-2
[12] = test system: SK-OV-3
[13] = test system: HL-60
[14] = test system: IGROV-1
[15] = test system: HT-29
[16] = test system: COLO 205
[17] = test system: 786-0
[18] = test system: UACC-62
[19] = test system: MOLT-4
[20] = test system: MDA-N

Row | SMILES | GI50 [1] | GI50 [2] | GI50 [3] | GI50 [4] | GI50 [5] | GI50 [6] | GI50 [7] | GI50 [8] | GI50 [9] | GI50 [10] | GI50 [11] | GI50 [12] | GI50 [13] | GI50 [14] | GI50 [15] | GI50 [16] | GI50 [17] | GI50 [18] | GI50 [19] | GI50 [20]
1 | CCOn1cc(C[C@@]2(O)C(=O)OC3[C@@H](O)CO[C@@]32O)c2ccccc21 (stereo partly specified) | > 100 µM (inactive) | > 100 µM (inactive) | > 100 µM (inactive) | > 100 µM (inactive) | > 100 µM (inactive) | > 100 µM (inactive) | > 100 µM (inactive) | > 100 µM (inactive) | > 100 µM (inactive) | > 100 µM (inactive) | > 100 µM (inactive) | > 100 µM (inactive) | > 100 µM (inactive) | > 100 µM (inactive) | > 100 µM (inactive) | > 100 µM (inactive) | 94.4 µM (inactive) | 46.7 µM (inactive) | > 100 µM (inactive) | 
2 | CC1(C)CC(=O)C2=C(C1)OC1=C(CC(C)(C)CC1=O)C2c1ccccc1Cl (stereo unspecified) |  | > 100 µM (inactive) | > 100 µM (inactive) | 43.5 µM (inactive) | > 100 µM (inactive) | > 100 µM (inactive) | > 100 µM (inactive) | 70.5 µM (inactive) | > 100 µM (inactive) | > 100 µM (inactive) | > 100 µM (inactive) | > 100 µM (inactive) | > 100 µM (inactive) | > 100 µM (inactive) | > 100 µM (inactive) | > 100 µM (inactive) | > 100 µM (inactive) | > 100 µM (inactive) | > 100 µM (inactive) | 
3 | CCCCCCCCCC1CC(=O)OC23CCCC(=O)C12O3 (stereo unspecified) | 82.2 µM (inactive) | > 100 µM (inactive) | > 100 µM (inactive) | 74.5 µM (inactive) | > 100 µM (inactive) | > 100 µM (inactive) | > 100 µM (inactive) | > 100 µM (inactive) | > 100 µM (inactive) | > 100 µM (inactive) | > 100 µM (inactive) | > 100 µM (inactive) | 26.7 µM (inactive) | > 100 µM (inactive) | > 100 µM (inactive) | > 100 µM (inactive) | > 100 µM (inactive) | 80 µM (inactive) | 26.7 µM (inactive) | 
4 | COc1cc2c(cc1OC)C(CC(=O)NN=C(C)C)NCC2 (stereo unspecified) | > 100 µM (inactive) | > 100 µM (inactive) | > 100 µM (inactive) | > 100 µM (inactive) | > 100 µM (inactive) | > 100 µM (inactive) | > 100 µM (inactive) | > 100 µM (inactive) | > 100 µM (inactive) | > 100 µM (inactive) | > 100 µM (inactive) | > 100 µM (inactive) | > 100 µM (inactive) | > 100 µM (inactive) | > 100 µM (inactive) | > 100 µM (inactive) | > 100 µM (inactive) | > 100 µM (inactive) | > 100 µM (inactive) | 
5 | O=C1C2C(C(=O)N1c1ccccc1)C1(Br)c3ccccc3C2(Br)C2C(=O)N(c3ccccc3)C(=O)C21 (stereo unspecified) | 16.6 µM (inactive) | > 100 µM (inactive) | > 31.6 µM (inactive) | > 31.6 µM (inactive) | > 31.6 µM (inactive) | > 31.6 µM (inactive) | > 31.6 µM (inactive) | 27.2 µM (inactive) | 18.1 µM (inactive) | 64 µM (inactive) | 31.4 µM (inactive) | > 100 µM (inactive) | > 31.6 µM (inactive) | > 31.6 µM (inactive) | 27.8 µM (inactive) | > 31.6 µM (inactive) | 20.5 µM (inactive) | 23.7 µM (inactive) | 20.6 µM (inactive) | 
6 | CC(C)(C)c1cc(COc2cc(COc3ccc(-c4c5c(nc6c4CCc4ccc(-c7c8ccccc8nc8ccccc78)cc4-6)-c4cc(-c6c7ccccc7nc7ccccc67)ccc4CC5)cc3)cc(OCc3cc(C(C)(C)C)cc(C(C)(C)C)c3)c2)cc(C(C)(C)C)c1 | > 100 µM (inactive) | > 100 µM (inactive) | > 100 µM (inactive) | > 100 µM (inactive) |  | > 100 µM (inactive) | > 100 µM (inactive) |  | > 100 µM (inactive) | > 100 µM (inactive) | > 100 µM (inactive) | > 100 µM (inactive) |  |  |  | > 100 µM (inactive) | > 100 µM (inactive) | > 100 µM (inactive) |  | > 100 µM (inactive)
7 | C[C@H]1OC(=O)[C@@H]2N=NN(Cc3ccccc3)[C@H]12 | > 100 µM (inactive) | > 100 µM (inactive) |  | > 100 µM (inactive) | > 100 µM (inactive) | > 100 µM (inactive) | > 100 µM (inactive) | > 100 µM (inactive) | > 100 µM (inactive) | > 100 µM (inactive) | > 100 µM (inactive) | > 100 µM (inactive) |  |  | > 100 µM (inactive) | > 100 µM (inactive) | > 100 µM (inactive) | > 100 µM (inactive) | > 100 µM (inactive) | > 100 µM (inactive)
8 | CC(C)(C)C1CCC(CI)(N=[N+]=[N-])CC1 (stereo unspecified) | > 100 µM (inactive) | > 100 µM (inactive) | > 100 µM (inactive) | > 100 µM (inactive) | > 100 µM (inactive) |  | > 100 µM (inactive) | > 100 µM (inactive) | > 100 µM (inactive) | > 100 µM (inactive) | 61.1 µM (inactive) | > 100 µM (inactive) | 42.8 µM (inactive) | > 100 µM (inactive) | > 100 µM (inactive) | > 100 µM (inactive) | > 100 µM (inactive) | > 100 µM (inactive) | > 100 µM (inactive) | 
9 | CC(C)N(C(C)C)P(OCCC#N)OC1CC(n2cnc3c(=O)[nH]cnc32)OC1COC(=O)NCCCCCCNC(=O)OC(C)(C)c1ccc(-c2ccccc2)cc1 (stereo unspecified) | 18.7 µM (inactive) | 52.1 µM (inactive) | 23.9 µM (inactive) | 24.8 µM (inactive) | 34.1 µM (inactive) | 34.3 µM (inactive) | 23.7 µM (inactive) | 24 µM (inactive) | 38.7 µM (inactive) | 39.4 µM (inactive) | 30.4 µM (inactive) | 39.4 µM (inactive) | 14.7 µM (inactive) | 17 µM (inactive) | 43.2 µM (inactive) | 17.4 µM (inactive) | 23 µM (inactive) | 18.4 µM (inactive) | 18.7 µM (inactive) | 
10 | CC1(C)[C@@H](Cn2cc(I)c(=O)[nH]c2=O)CC[C@@]1(C)CO | > 100 µM (inactive) | > 100 µM (inactive) | > 100 µM (inactive) | 92.9 µM (inactive) | > 100 µM (inactive) | > 100 µM (inactive) | > 100 µM (inactive) |  | > 100 µM (inactive) | > 100 µM (inactive) | > 100 µM (inactive) | > 100 µM (inactive) |  |  |  | > 100 µM (inactive) | > 100 µM (inactive) | > 100 µM (inactive) |  | > 100 µM (inactive)
11 | COc1ccccc1NC(=O)CC(=O)n1nc(C)c(/N=N/c2ccccc2F)c1C | > 100 µM (inactive) | > 52 µM (inactive) | 45.1 µM (inactive) | > 100 µM (inactive) | > 100 µM (inactive) | > 100 µM (inactive) | > 100 µM (inactive) | 21.5 µM (inactive) | > 100 µM (inactive) | > 100 µM (inactive) | > 100 µM (inactive) | 31.3 µM (inactive) | > 100 µM (inactive) | > 100 µM (inactive) | > 100 µM (inactive) | > 100 µM (inactive) | 76.6 µM (inactive) | > 100 µM (inactive) | > 31.6 µM (inactive) | 
12 | CSc1ccc2c(cc1=O)C(NC(=O)c1ccccc1)CCc1cc(O)c(O)c(O)c1-2 (stereo unspecified) | 4.81 µM (inactive) | 4.22 µM (inactive) | 21.2 µM (inactive) | 2.61 µM (inactive) | 15.7 µM (inactive) | 24.5 µM (inactive) | 18.4 µM (inactive) | 3.15 µM (inactive) | 37.6 µM (inactive) | 27.6 µM (inactive) | 5.5 µM (inactive) | 5.71 µM (inactive) | 7.43 µM (inactive) | 22 µM (inactive) | 32.3 µM (inactive) | 23.2 µM (inactive) | 29.4 µM (inactive) | 5.05 µM (inactive) | 21.3 µM (inactive) | 
13 | CCN(CC)CCNc1ccc2nnn3c4ccc(C)cc4c(=O)c1c23 | 4.56 µM (inactive) | 5.02 µM (inactive) | 10.8 µM (inactive) | 10.7 µM (inactive) | 4.63 µM (inactive) | 15.5 µM (inactive) | 8 µM (inactive) | 6.14 µM (inactive) | 5.45 µM (inactive) | 13.2 µM (inactive) | 13.7 µM (inactive) | 10.9 µM (inactive) | 3.9 µM (inactive) | 10.4 µM (inactive) | 4.14 µM (inactive) | 5.87 µM (inactive) | 5.66 µM (inactive) | 14 µM (inactive) | 3.07 µM (inactive) | 
14 | NC(=O)c1cccc([N+](=O)[O-])c1 | > 100 µM (inactive) | > 100 µM (inactive) | > 100 µM (inactive) | > 100 µM (inactive) | > 100 µM (inactive) | > 100 µM (inactive) | > 100 µM (inactive) | > 100 µM (inactive) |  | > 100 µM (inactive) | > 100 µM (inactive) | > 100 µM (inactive) | > 100 µM (inactive) | > 100 µM (inactive) | > 100 µM (inactive) | > 100 µM (inactive) | > 100 µM (inactive) | > 100 µM (inactive) | > 100 µM (inactive) | 
15 | CC1=C2C(=O)C(C)(C)C=C2C(=O)[C@](C)(O)C12CC2 [DEHYDROILLUDIN M] | > 0.935 µM (active) | 0.585 µM (active) | > 1 µM (active) | 0.296 µM (active) | > 1 µM (active) | > 1 µM (active) | > 1 µM (active) | > 1 µM (active) | 0.552 µM (active) | > 1 µM (active) | 0.614 µM (active) | > 1 µM (active) | 0.247 µM (active) | > 1 µM (active) | 0.248 µM (active) | > 1 µM (active) | 0.537 µM (active) | 0.586 µM (active) | > 1 µM (active) | 
